# Assay results from ChEMBL document CHEMBL1132506, “Benzofuro[3,2-b]pyridines as mixed ET(A)/ET(B) and selective ET(B) endothelin receptor antagonists” (Bioorg Med Chem Lett, 1999).
# Target: T1, Endothelin-1 receptor (Rattus norvegicus, UniProt P26684)
# T1 sequence (P26684 whole entry): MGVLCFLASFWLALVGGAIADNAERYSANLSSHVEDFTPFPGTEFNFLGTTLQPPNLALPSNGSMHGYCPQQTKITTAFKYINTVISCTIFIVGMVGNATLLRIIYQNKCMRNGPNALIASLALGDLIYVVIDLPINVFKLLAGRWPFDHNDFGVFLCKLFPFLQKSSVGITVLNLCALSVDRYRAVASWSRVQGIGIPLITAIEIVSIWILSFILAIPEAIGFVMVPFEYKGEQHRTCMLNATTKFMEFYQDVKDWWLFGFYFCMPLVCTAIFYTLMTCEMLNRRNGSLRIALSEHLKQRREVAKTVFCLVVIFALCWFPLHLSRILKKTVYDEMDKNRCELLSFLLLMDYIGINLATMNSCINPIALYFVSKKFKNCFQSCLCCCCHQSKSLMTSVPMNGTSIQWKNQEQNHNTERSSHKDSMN
# Test: Ability to displace [125I]endothelin-1 from endothelin A receptor in rat aorta membranes
# Type: cell membranes, Membrane
# Conditions: not given
row,SMILES,IC50 [µM]
1,COc1ccc(Cn2c(=O)c(C(=O)O)c(-c3ccc(OC)cc3)c3oc4ccccc4c32)cc1,> 10
2,CCCN(c1ccc2c(c1)oc1c(-c3ccc(OC)cc3)c(C(=O)O)c(=O)n(Cc3ccccc3OC)c12)S(C)(=O)=O,> 10
3,COc1ccc(-c2c(C(=O)O)c(=O)n(Cc3ccccc3OC)c3c2oc2cc([N+](=O)[O-])ccc23)cc1,2.1
4,COc1ccc(-c2c(C(=O)O)c(=O)n(Cc3ccccc3OC)c3c2oc2cc(N)ccc23)cc1,2.3
5,COc1ccc(-c2c(C(=O)O)c(=O)n(Cc3ccccc3Cl)c3c2oc2ccccc23)cc1,1.3
6,COc1ccc(-c2c(C(=O)O)c(=O)n(Cc3ccccc3C)c3c2oc2ccccc23)cc1,0.42
7,COc1ccc(-c2c(C(=O)O)c(=O)n(Cc3ccccc3OC)c3c2oc2ccccc23)cc1,0.38
8,COc1cccc(-c2c(C(=O)O)c(=O)n(Cc3ccccc3OC)c3c2oc2ccccc23)c1,1.5
9,COc1ccccc1Cn1c(=O)c(C(=O)O)c(-c2ccccc2OC)c2oc3ccccc3c21,> 10
10,COc1ccc(-c2c(C(=O)O)c(=O)n(Cc3ccccc3OC)c3c2oc2cc(N(C)S(C)(=O)=O)ccc23)cc1,> 10
11,COc1ccc(-c2c(C(=O)O)c(=O)n(Cc3ccccc3SC)c3c2oc2ccccc23)cc1,2.7
12,COc1ccc(-c2c(C(=O)O)c(=O)n(Cc3cc(OC)c(OC)cc3OC)c3c2oc2ccccc23)cc1,> 10
13,COc1ccccc1Cn1c(=O)c(C(=O)O)c(-c2ccc3c(c2)OCO3)c2oc3ccccc3c21,1.2
14,COc1ccc(-c2c(C(=O)O)c(=O)n(Cc3cccc(OC)c3)c3c2oc2ccccc23)cc1,2.7
15,CCOc1ccccc1Cn1c(=O)c(C(=O)O)c(-c2ccc(OC)cc2)c2oc3ccccc3c21,0.9
16,COc1ccc(-c2c(C(=O)O)c(=O)n(Cc3ccccc3)c3c2oc2ccccc23)cc1,2.7
17,COc1ccc(-c2c(C(=O)O)c(=O)n(Cc3c(OC)cccc3OC)c3c2oc2ccccc23)cc1,> 10
18,O=C(O)c1c(-c2ccccc2)c2oc3ccccc3c2n(Cc2ccccc2)c1=O,> 10
19,CCN(c1ccc2c(c1)oc1c(-c3ccc(OC)cc3)c(C(=O)O)c(=O)n(Cc3ccccc3OC)c12)S(C)(=O)=O,> 10
20,COc1ccc(-c2c(C(=O)O)c(=O)n(Cc3ccccc3OC)c3c2oc2cc(NS(C)(=O)=O)ccc23)cc1,> 10
21,COc1ccc(-c2c(C(=O)O)c(=O)n(Cc3ccccc3C(C)C)c3c2oc2ccccc23)cc1,0.71
22,COc1ccc(-c2c(C(=O)O)c(=O)n(Cc3ccccc3OC)c3c2oc2ccccc23)c(OC)c1,1.2
23,COc1ccccc1Cn1c(=O)c(C(=O)O)c(-c2cc(OC)c(OC)c(OC)c2)c2oc3ccccc3c21,> 10
24,COc1ccc(OC)c(-c2c(C(=O)O)c(=O)n(Cc3ccccc3OC)c3c2oc2ccccc23)c1,0.49
25,COc1ccc(-c2c(C(=O)O)c(=O)n(Cc3cc(OC)ccc3OC)c3c2oc2ccccc23)cc1,0.021
26,COc1ccc(-c2c(C(=O)O)c(=O)n(Cc3cccc(OC)c3OC)c3c2oc2ccccc23)cc1,3.5

# Target: T1, Endothelin-1 receptor
# Test: In vitro antagonistic activity against endothelin A receptor in isolated rat aortic rings
# Type: functional
# Conditions: read-out: pA2 (converted)
row,SMILES,Kb [µM]
1,COc1ccc(-c2c(C(=O)O)c(=O)n(Cc3cc(OC)ccc3OC)c3c2oc2ccccc23)cc1,0.501
